1 molecule from US5183821A, “Method for treating leukemias using N-(2-dimethylaminoethyl)-3-amino-1,8-naphthalimide for treating leukemias and solid tumors” (priority 1991, dated 1993) can be followed below.

Details of data set [1]: species or system human. An excerpt:
Further studies were done using heparinized plasma (two additional human donors) and with EDTA plasma (one donor). […] Human EDTA plasma was compatible with drug at a 1:32 drug/plasma ratio.

The subject of data set [2] is P388 Lymphocytic leukemia. Kind of data set: NCI screen, P388 Lymphocytic leukemia, intraperitoneal (summary). Format: in vivo, Mouse. The following applies: for maximum increased life span: days 2-9 as printed; for Antitumor activity in words: P388. An excerpt:
The activity of the compound has been evaluated by experiments carried out under the auspices of the Division of Cancer Treatment, National Cancer Institute, employing techniques considered to be reliable indicators of chemotherapeutic utility in the treatment of forms of cancer in human patients. The details of the methodology employed in the reported experiments may be determined with reference to established NCI screening methods.
In the experiments conducted by the NCI, evaluation of activity is made on the basis of appropriate parameters, such as median survival time (MST) or change in average tumor diameter (CATD)in ocular micrometer units (OMU).
The compound was found initially to be active in the P388 leukemia pre-screen, with T/C values (ratio of Test (T) evaluation to control (C) evaluation expressed as a percentage) of 177 and 176. Both values exceed the minimum T/C values for interest by the Decision Network Committe.

Another data set has as its system L-1210 Lymphoid leukemia. Description: Experiment 7: L-1210 i.p., 10^5 cells, acid diluted with saline, male. Format: in vivo, Mouse CD2 F1 (CDF1). An excerpt:
Host: Mouse CD2 F1 (CDF1)
Tumor: L-1210 Lymphoid leukemia
Inoculum Site: Intraperitoneal
Vehicle: Acid diluted with saline
Treatment schedule (relative to tumor inoculation day): daily on days 1-9
Day of evaluation (relative to tumor inoculation day): 30
Parameter: Median survival time (MST) in days
NCI minimal activity criteria: Percent T/C≥125
Percent T/C: Ratio of test (T) evaluation to control (C) evaluation expressed as a percentage

Structures are written as SMILES. Values joined by “and” are separate entries in the source; they are usually repeats but may differ in a detail not shown here. Identical values can stand only once.

With `CN(C)CCN1C(=O)c2cccc3cc(N)cc(c23)C1=O` [Example 9, 1H-Benz[de]isoquinoline-1,3(2H)-dione, 5-amino-2-[2-(dimethylamino)ethyl]], the blood compatibility result in data set [1] is listed as “compatible”. Also, the “maximum increased life span” value in data set [2] (8 mg/kg i.p.) is 76%; in data set [2] (16 mg/kg i.p.) it was 77%. Further, the “Antitumor activity in words” value in data set [2] (listed as BIDA) was “active”; in data set [2] (listed as the compound), “at least a reproducible minimal activity”. Also, the “Table II evaluation” value in data set [2] (median survival time, 9 tests, full wrapped cell: Reproducible minimal activity) is “Reproducible minimal”. Further, the “T/C values in the P388 leukemia pre-screen” value in data set [2] (test/control as percentage, listed as the compound) is 177% and 176%. Further, the “Median survival time (MST)” value is recorded as 10.4 days in the data set on L-1210 Lymphoid leukemia (1.00 mg/kg i.p.); 10.2 days in the data set on L-1210 Lymphoid leukemia (2.00 mg/kg i.p.); 10.4 days in the data set with L-1210 Lymphoid leukemia (4.00 mg/kg i.p.); 12.4 days in the data set with L-1210 Lymphoid leukemia (8.00 mg/kg i.p.); 11.8 days with L-1210 Lymphoid leukemia (16.00 mg/kg i.p.); 8.0 days with L-1210 Lymphoid leukemia (32.00 mg/kg i.p.). For the same molecule, the “Percent T/C” value is reported as 99% with L-1210 Lymphoid leukemia (1.00 mg/kg i.p.); 97% in the data set on L-1210 Lymphoid leukemia (2.00 mg/kg i.p.); 99% in the data set with L-1210 Lymphoid leukemia (4.00 mg/kg i.p.); 118% in the data set on L-1210 Lymphoid leukemia (8.00 mg/kg i.p.); 112% in the data set on L-1210 Lymphoid leukemia (16.00 mg/kg i.p.).
